Laboratory results published in US20250026721A1, “COMPOUNDS AND METHODS FOR MODULATING RAS-PI3K” (Vividion Therapeutics, Inc., priority 2023, published 2025).

What was measured:
[1] = system: pAKT(S473) in FaDu cell line; test: In vitro Phospho-AKT(S473) HTRF analysis in FaDu cells; assay type: cell-based; settings: Homo sapiens, 0.5 h; for IC50: FaDu cells, 30 minutes at 37° C.; for Emax: FaDu, read-out: FaDu pAKT Imax % control
Protocol: Example 5. In Vitro Phosgho-AKT(S473) Analysis
Functional activity of the compounds to inhibit pAKT were assessed in FaDu or H358 cell lines as indicated below.
• Complete Media • FBS, Corning catalog #35-010-CV • Anti-Anti, Gibco catalog #15240-062 • 96 well plate, Corning catalog #3610 • TrypLE, Gibco catalog #12604013 • Phospho-AKT(S473) HTRF kit, Cisbio catalog #64AKSPET
Cells were detached from the tissue culture flask with TrypLE. The cells were pelleted at 500×g for 5 min, TrypLe was removed and then resuspended in the necessary volume of media+1% FBS to give the appropriate cell density (17,500 cells/mL for FaDu; 20,000 cells/mL for H358). 100 μL of cell suspension/well was dispensed into the 96-well plate while keeping the outer wells of the plate free of cells and filled with PBS to prevent evaporation of interior wells. The plate was incubated at 37° C. and allowed to adhere overnight. The cells were treated with a dose response of compound and incubated at 37° C. for 30 minutes. The cells were then processed and pAKT(S473) levels were assessed following the specifications of the Cisbio HTRF kit.

PIK3CA = target: T1, PIK3CA (Homo sapiens, UniProt P42336); test: In vitro ELISA target engagement assay for PIK3CA in Jurkat cellular lysate (competition with PIK3CA Biotin Probe); assay type: binding; settings: 1 hour at rt, then 500 nM PIK3CA Biotin Probe, read-out: Elisa Target Engagement Assay (TE50)
T1 construct: endogenous in cells; host or cells: Jurkat cell lysate
T1 sequence (P42336 whole entry): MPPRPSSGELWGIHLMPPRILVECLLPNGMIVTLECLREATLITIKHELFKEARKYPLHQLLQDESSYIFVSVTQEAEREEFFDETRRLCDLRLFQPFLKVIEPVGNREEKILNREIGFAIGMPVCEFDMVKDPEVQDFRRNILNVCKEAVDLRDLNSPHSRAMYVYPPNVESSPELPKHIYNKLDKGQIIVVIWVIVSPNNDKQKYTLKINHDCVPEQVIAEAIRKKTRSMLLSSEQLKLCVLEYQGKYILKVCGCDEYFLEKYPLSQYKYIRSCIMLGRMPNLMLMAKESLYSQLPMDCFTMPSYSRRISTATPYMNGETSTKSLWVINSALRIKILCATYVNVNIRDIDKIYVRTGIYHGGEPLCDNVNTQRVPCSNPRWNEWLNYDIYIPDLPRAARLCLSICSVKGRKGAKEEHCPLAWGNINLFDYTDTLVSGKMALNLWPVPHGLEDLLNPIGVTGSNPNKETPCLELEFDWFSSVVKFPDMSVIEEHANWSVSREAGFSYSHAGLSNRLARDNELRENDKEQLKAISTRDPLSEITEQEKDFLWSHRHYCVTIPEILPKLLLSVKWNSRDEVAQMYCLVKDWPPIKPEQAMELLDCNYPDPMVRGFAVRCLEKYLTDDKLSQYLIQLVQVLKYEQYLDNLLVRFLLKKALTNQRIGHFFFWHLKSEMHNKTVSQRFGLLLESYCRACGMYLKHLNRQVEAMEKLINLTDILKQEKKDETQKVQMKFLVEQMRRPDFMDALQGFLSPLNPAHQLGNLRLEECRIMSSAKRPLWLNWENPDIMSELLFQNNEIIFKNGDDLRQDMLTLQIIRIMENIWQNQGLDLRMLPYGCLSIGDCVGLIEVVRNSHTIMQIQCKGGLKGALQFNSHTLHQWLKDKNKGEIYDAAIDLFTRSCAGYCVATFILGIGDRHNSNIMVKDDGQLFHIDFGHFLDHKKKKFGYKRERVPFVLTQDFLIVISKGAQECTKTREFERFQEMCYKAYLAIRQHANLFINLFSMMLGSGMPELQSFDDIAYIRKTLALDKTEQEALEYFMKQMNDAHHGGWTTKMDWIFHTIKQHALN
T1 sequence (P27986 whole entry partner): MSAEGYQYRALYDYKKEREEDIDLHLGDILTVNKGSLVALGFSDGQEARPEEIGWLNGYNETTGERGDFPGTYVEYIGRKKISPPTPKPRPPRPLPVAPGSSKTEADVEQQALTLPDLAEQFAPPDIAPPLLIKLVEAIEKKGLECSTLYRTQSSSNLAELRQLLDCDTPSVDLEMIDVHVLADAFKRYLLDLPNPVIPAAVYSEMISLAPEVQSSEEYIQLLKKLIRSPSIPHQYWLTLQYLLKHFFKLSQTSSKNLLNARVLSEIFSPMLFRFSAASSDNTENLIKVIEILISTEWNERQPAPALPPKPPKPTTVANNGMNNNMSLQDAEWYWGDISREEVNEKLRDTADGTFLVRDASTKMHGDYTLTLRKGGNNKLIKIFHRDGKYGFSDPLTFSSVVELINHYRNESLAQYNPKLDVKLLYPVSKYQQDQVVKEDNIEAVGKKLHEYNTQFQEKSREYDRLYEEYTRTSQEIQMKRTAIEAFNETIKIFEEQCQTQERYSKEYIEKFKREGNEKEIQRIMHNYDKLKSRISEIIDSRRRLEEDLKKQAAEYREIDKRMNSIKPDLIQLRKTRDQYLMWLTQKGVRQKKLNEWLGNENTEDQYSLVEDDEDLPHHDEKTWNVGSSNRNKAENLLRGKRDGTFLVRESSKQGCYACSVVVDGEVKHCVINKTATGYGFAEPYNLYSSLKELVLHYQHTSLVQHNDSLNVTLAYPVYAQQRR
In short: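 Competition format in Jurkat lysate: compound (serial dilutions, top 200 μM) for 1 h at rt, then 500 nM final biotinylated PIK3CA probe for 1 h at rt. Sandwich ELISA with capture antibody and Neutravidin-HRP luminescence read-out measured probe-labelled PIK3CA, giving TE50.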

SMILES: C[C@@H](NC(=O)C1(F)CCN(S(=O)(=O)c2ccc(Br)cc2-c2ccccc2Cl)CC1)C1=CS(=O)(=O)C1 (single isomer, unassigned) [Compound 234, (*R)-1-((5-bromo-2′-chloro-[1,1′-biphenyl]-2-yl)sulfonyl)-N-(1-(1,1-dioxido-2H-thiet-3-yl)ethyl)-4-fluoropiperidine-4-carboxamide]
- IC50 [1]: 0.1 µM
- IC50 (PIK3CA): 0.14 µM

SMILES: C[C@H](/C=C\S(=O)(=O)[C@@H]1CCN(C)C1)NC(=O)C1(F)CCN(S(=O)(=O)c2ccc(Br)cc2-c2ccccc2Cl)CC1 (single isomer, unassigned) [Compound 237, 1-((5-bromo-2′-chloro-[1,1′-biphenyl]-2-yl)sulfonyl)-4-fluoro-N-((R,Z)-4-(((*R)-1-methylpyrrolidin-3-yl)sulfonyl)but-3-en-2-yl)piperidine-4-carboxamide]
- IC50 [1]: 0.0736 µM
- IC50 (PIK3CA): 0.055 µM

SMILES: C[C@H](/C=C\S(=O)(=O)[C@H]1CCN(C)C1)NC(=O)C1(F)CCN(S(=O)(=O)c2ccc(Br)cc2-c2ccccc2Cl)CC1 (single isomer, unassigned) [Compound 238, 1-((5-bromo-2′-chloro-[1,1′-biphenyl]-2-yl)sulfonyl)-4-fluoro-N-((R,Z)-4-(((*S)-1-methylpyrrolidin-3-yl)sulfonyl)but-3-en-2-yl)piperidine-4-carboxamide]
- IC50 [1]: 0.0292 µM
- IC50 (PIK3CA): 0.025 µM

SMILES: CS(=O)(=O)/C=C\[C@H](CC(F)(F)F)NC(=O)C1(F)CCN(S(=O)(=O)c2ccc(Br)cc2-c2ccccc2Cl)CC1 (single isomer, unassigned) [Compound 240, (*S,Z)-1-((5-bromo-2′-chloro-[1,1′-biphenyl]-2-yl)sulfonyl)-4-fluoro-N-(5,5,5-trifluoro-1-(methylsulfonyl)pent-1-en-3-yl)piperidine-4-carboxamide]
- IC50 [1]: 0.437 µM
- IC50 (PIK3CA): 0.12 µM

SMILES: C[C@H](/C=C\S(C)(=O)=O)NC(=O)C1(F)CCN(S(=O)(=O)c2ccc(Br)cc2-c2cccc(Br)c2)CC1 [Compound 58, (R,Z)-1-((3′,5-dibromo-[1,1′-biphenyl]-2-yl)sulfonyl)-4-fluoro-N-(4-(methylsulfonyl)but-3-en-2-yl)piperidine-4-carboxamide]
- IC50 [1]: 0.743 µM
- Emax [1]: 97.5%
- IC50 (PIK3CA): 0.85 µM

SMILES: CC(=O)c1ccc(S(=O)(=O)N2CCC(F)(C(=O)N[C@H](C)/C=C/C(=O)N3CC(F)(F)C3)CC2)c(-c2ccccc2Cl)c1 [Compound 138, (R,E)-1-((5-acetyl-2′-chloro-[1,1′-biphenyl]-2-yl)sulfonyl)-N-(5-(3,3-difluoroazetidin-1-yl)-5-oxopent-3-en-2-yl)-4-fluoropiperidine-4-carboxamide]
- IC50 [1]: 0.292 µM
- Emax [1]: 93.5%
- IC50 (PIK3CA): 0.34 µM

SMILES: CC(O)c1ccc(S(=O)(=O)N2CCC(F)(C(=O)N[C@H](C)/C=C/C(=O)N3CC(F)(F)C3)CC2)c(-c2ccccc2Cl)c1 (stereo partly drawn) [Compound 140, 1-((2′-chloro-5-(1-hydroxyethyl)-[1,1′-biphenyl]-2-yl)sulfonyl)-N-((R,E)-5-(3,3-difluoroazetidin-1-yl)-5-oxopent-3-en-2-yl)-4-fluoropiperidine-4-carboxamide]
- IC50 [1]: 0.427 µM
- Emax [1]: 87.7%
- IC50 (PIK3CA): 0.35 µM

SMILES: C[C@H](/C=C\S(C)(=O)=O)NC(=O)[C@]1(F)CCN(S(=O)(=O)c2ccc(Br)cc2-c2ccccc2Cl)[C@H](C)C1 [Compound 143, (2R,4S)-1-((5-bromo-2′-chloro-[1,1′-biphenyl]-2-yl)sulfonyl)-4-fluoro-2-methyl-N-((R,Z)-4-(methylsulfonyl)but-3-en-2-yl)piperidine-4-carboxamide]
- IC50 [1]: 0.117 µM
- Emax [1]: 111%
- IC50 (PIK3CA): 0.0665 µM

SMILES: C[C@H](/C=C\S(C)(=O)=O)NC(=O)[C@]1(F)CCN(S(=O)(=O)c2ccc(Br)cc2-c2cccc(Cl)c2)[C@H](C)C1 [Compound 145, (2R,4S)-1-((5-bromo-3′-chloro-[1,1′-biphenyl]-2-yl)sulfonyl)-4-fluoro-2-methyl-N-((R,Z)-4-(methylsulfonyl)but-3-en-2-yl)piperidine-4-carboxamide]
- IC50 [1]: 0.131 µM
- Emax [1]: 102%
- IC50 (PIK3CA): 0.27 µM

SMILES: COCc1ccc(S(=O)(=O)N2CC[C@@](F)(C(=O)N[C@H](C)/C=C\S(C)(=O)=O)C[C@H]2C)c(-c2ccccc2Cl)c1 [Compound 149, (2R,4S)-1-((2′-chloro-5-(methoxymethyl)-[1,1′-biphenyl]-2-yl)sulfonyl)-4-fluoro-2-methyl-N-((R,Z)-4-(methylsulfonyl)but-3-en-2-yl)piperidine-4-carboxamide]
- IC50 [1]: 0.248 µM
- Emax [1]: 109%
- IC50 (PIK3CA): 0.161 µM

SMILES: C[C@H](/C=C/C(=O)N1CC(F)(F)C1)NC(=O)[C@]1(F)CCN(S(=O)(=O)c2ccc(Br)cc2-c2ccccc2Cl)[C@H](C)C1 [Compound 153, (2R,4S)-1-((5-bromo-2′-chloro-[1,1′-biphenyl]-2-yl)sulfonyl)-N-((R,E)-5-(3,3-difluoroazetidin-1-yl)-5-oxopent-3-en-2-yl)-4-fluoro-2-methylpiperidine-4-carboxamide]
- IC50 [1]: 0.205 µM
- Emax [1]: 104%
- IC50 (PIK3CA): 0.183 µM

SMILES: C[C@H](/C=C/C(=O)N1CC(F)(F)C1)NC(=O)[C@]1(F)CCN(S(=O)(=O)c2ccc(Br)cc2-c2cccc(Cl)c2)[C@H](C)C1 [Compound 155, (2R,4S)-1-((5-bromo-3′-chloro-[1,1′-biphenyl]-2-yl)sulfonyl)-N-((R,E)-5-(3,3-difluoroazetidin-1-yl)-5-oxopent-3-en-2-yl)-4-fluoro-2-methylpiperidine-4-carboxamide]
- IC50 [1]: 0.305 µM
- Emax [1]: 106%
- IC50 (PIK3CA): 0.3 µM

SMILES: COCc1ccc(S(=O)(=O)N2CC[C@@](F)(C(=O)N[C@H](C)/C=C/C(=O)N3CC(F)(F)C3)C[C@H]2C)c(-c2ccccc2Cl)c1 [Compound 156, (2R,4S)-1-((2′-chloro-5-(methoxymethyl)-[1,1′-biphenyl]-2-yl)sulfonyl)-N-((R,E)-5-(3,3-difluoroazetidin-1-yl)-5-oxopent-3-en-2-yl)-4-fluoro-2-methylpiperidine-4-carboxamide]
- IC50 [1]: 0.348 µM
- Emax [1]: 99.2%
- IC50 (PIK3CA): 0.52 µM

SMILES: O=C([C@H]1CN(CC(F)(F)F)C[C@H]1c1ccccc1Cl)N1CCC(F)(C(=O)N[C@@H]2C=CS(=O)(=O)C2)CC1 [Compound 164, 1-((3R,4R)-4-(2-chlorophenyl)-1-(2,2,2-trifluoroethyl)pyrrolidine-3-carbonyl)-N—((R)-1,1-dioxido-2,3-dihydrothiophen-3-yl)-4-fluoropiperidine-4-carboxamide]
- IC50 [1]: 0.834 µM
- Emax [1]: 103%
- IC50 (PIK3CA): 0.37 µM

SMILES: O=C([C@H]1CN(CC(F)(F)F)C[C@H]1c1ccccc1Cl)N1CCC[C@](F)(C(=O)N[C@@H]2C=CS(=O)(=O)C2)CC1 [Compound 176, (R)-1-((3R,4R)-4-(2-chlorophenyl)-1-(2,2,2-trifluoroethyl)pyrrolidine-3-carbonyl)-N-((R)-1,1-dioxido-2,3-dihydrothiophen-3-yl)-4-fluoroazepane-4-carboxamide]
- IC50 [1]: 0.679 µM
- Emax [1]: 83.3%
- IC50 (PIK3CA): 0.75 µM

SMILES: C[C@H](/C=C/S(C)(=O)=O)NC(=O)[C@@]1(F)CCCN(C(=O)[C@H]2CN(CC(F)(F)F)C[C@H]2c2ccccc2Cl)CC1 [Compound 177, (R)-1-((3R,4R)-4-(2-chlorophenyl)-1-(2,2,2-trifluoroethyl)pyrrolidine-3-carbonyl)-4-fluoro-N-((R,E)-4-(methylsulfonyl)but-3-en-2-yl)azepane-4-carboxamide]
- IC50 [1]: 0.672 µM
- Emax [1]: 69.5%
- IC50 (PIK3CA): 0.79 µM

SMILES: C[C@H](/C=C\S(C)(=O)=O)NC(=O)[C@@]1(F)CCCN(C(=O)[C@H]2CN(CC(C)(F)F)C[C@H]2c2ccccc2Cl)CC1 [Compound 180, (R)-1-((3R,4R)-4-(2-chlorophenyl)-1-(2,2-difluoropropyl)pyrrolidine-3-carbonyl)-4-fluoro-N-((R,Z)-4-(methylsulfonyl)but-3-en-2-yl)azepane-4-carboxamide]
- IC50 [1]: 0.136 µM
- Emax [1]: 96.9%
- IC50 (PIK3CA): 0.127 µM

SMILES: CC[C@H](/C=C\S(C)(=O)=O)NC(=O)[C@@]1(F)CCCN(C(=O)[C@H]2CN(CC(F)(F)F)C[C@H]2c2ccccc2Cl)CC1 [Compound 198, (R)-1-((3R,4R)-4-(2-chlorophenyl)-1-(2,2,2-trifluoroethyl)pyrrolidine-3-carbonyl)-4-fluoro-N-((R,Z)-1-(methylsulfonyl)pent-1-en-3-yl)azepane-4-carboxamide]
- IC50 [1]: 0.472 µM
- Emax [1]: 95.2%
- IC50 (PIK3CA): 0.54 µM

SMILES: C[C@H](/C=C\S(C)(=O)=O)NC(=O)C1(F)CCN(S(=O)(=O)c2ccc(N3CCCC3=O)cc2-c2ccccc2Cl)CC1 [Compound 205, (R,Z)-1-((2′-chloro-5-(2-oxopyrrolidin-1-yl)-[1,1′-biphenyl]-2-yl)sulfonyl)-4-fluoro-N-(4-(methylsulfonyl)but-3-en-2-yl)piperidine-4-carboxamide]
- IC50 [1]: 1.12 µM
- IC50 (PIK3CA): 0.65 µM
